This passage reports TGI and GI50 results from PubChem BioAssay (NCI).

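Growth conditions: 96-well plates. Treatment: test compound, 48 hours, 5 concentrations. Analysis: linear interpolation between bracketing concentrations; unreached endpoints set to highest concentration. GI50: concentration for 50% inhibition of growth. TGI: concentration producing complete growth inhibition.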

Test systems include A498 renal; HT29 colon; IGROV1 ovarian; RXF 393 renal; SK-MEL-2 melanoma; SK-MEL-5 melanoma; SN12C renal; SNB-19 CNS; U251 CNS.
Experiment in all cases: growth of human tumour cells (NCI), 48 h

In the case of `COc1c2c(cc3nc4ccccc4nc13)CCC(C(C)(C)O)C2` (stereo not drawn), the TGI in the assay with A498 renal, with HT29 colon, with IGROV1 ovarian, in the assay with RXF 393 renal, in the assay with SK-MEL-2 melanoma and in the assay on SK-MEL-5 melanoma was > 100 µM each time. For the same compound, the TGI in the assay on SN12C renal, in the assay on SNB-19 CNS and with U251 CNS was > 100 µM in each case.
Turning to `COc1cc(OC(=O)c2c(O)cc(O)c(O)c2C)cc(C)c1C(=O)Oc1cc(C)c(C(=O)O)c(O)c1`, the TGI in the assay with A498 renal, in the assay with HT29 colon, in the assay with IGROV1 ovarian, with RXF 393 renal, in the assay with SK-MEL-2 melanoma and in the assay with SK-MEL-5 melanoma was > 100 µM in each case. For the same compound, the TGI with SN12C renal and with U251 CNS was > 100 µM in each case.
With `Nc1ccc(/C=C/c2ccnc3ccccc23)cc1`, the TGI in the assay on HT29 colon is 65.1 µM; in the assay on IGROV1 ovarian, > 100 µM; with SK-MEL-2 melanoma, 37.6 µM; in the assay on SK-MEL-5 melanoma, 29.6 µM; with SNB-19 CNS, 79.3 µM; in the assay with U251 CNS it was 59.4 µM.
On to `CC(C)N(C(=O)C12CC3CC(CC(C3)C1)C2)C(C)C`, for which the TGI with A498 renal, with HT29 colon, in the assay with IGROV1 ovarian, in the assay on RXF 393 renal, in the assay on SK-MEL-2 melanoma and in the assay with SK-MEL-5 melanoma was > 50 µM in each case. Further, the TGI with SN12C renal, with SNB-19 CNS and in the assay on U251 CNS was > 50 µM in each case.
Consider `CC(=O)[CH-]C(=O)c1ccccc1.CC(=O)[CH-]C(=O)c1ccccc1.O=C([O-])c1ccc([O-])cc1.O=C([O-])c1ccc([O-])cc1.[Ti+4]`, for which the GI50 in the assay with HT29 colon is 51.2 µM; in the assay with IGROV1 ovarian it was 84.3 µM; with RXF 393 renal, 15.3 µM; in the assay on SK-MEL-2 melanoma, 36.9 µM; with SK-MEL-5 melanoma it was 43.9 µM; in the assay with SN12C renal, 51.3 µM. In addition, the GI50 with SNB-19 CNS is 52.3 µM; in the assay on U251 CNS, 45 µM. Moreover, the TGI in the assay on HT29 colon was > 100 µM; with IGROV1 ovarian, > 100 µM; in the assay on RXF 393 renal, 56.4 µM; in the assay with SK-MEL-2 melanoma, > 100 µM; in the assay with SK-MEL-5 melanoma, > 100 µM; with SN12C renal it was > 100 µM. In addition, the TGI in the assay on SNB-19 CNS and in the assay on U251 CNS was > 100 µM each time.
`C=CCCCCCCCCC(=O)NS(=O)(=O)c1ccccc1`: the TGI in the assay on A498 renal, with HT29 colon, in the assay with IGROV1 ovarian, with RXF 393 renal, with SK-MEL-2 melanoma and with SN12C renal was > 100 µM each time. The TGI in the assay with SNB-19 CNS and with U251 CNS was > 100 µM in each case.
Take `N#Cc1nc(C2OC(COC(=O)c3ccccc3)C(OC(=O)c3ccccc3)C2OC(=O)c2ccccc2)oc1N` (stereo not drawn): the TGI in the assay with A498 renal was > 100 µM; in the assay with HT29 colon, > 100 µM; in the assay on IGROV1 ovarian, > 100 µM; in the assay on RXF 393 renal, > 100 µM; in the assay with SK-MEL-2 melanoma it was 93.7 µM; in the assay with SK-MEL-5 melanoma it was 40 µM. In addition, the TGI in the assay on SN12C renal, with SNB-19 CNS and in the assay on U251 CNS was > 100 µM each time.
For the compound `COC(=O)c1cc(Br)c(Br)n1C`, the TGI in the assay on A498 renal, in the assay with HT29 colon, in the assay with IGROV1 ovarian, in the assay with RXF 393 renal, in the assay with SK-MEL-5 melanoma and with SN12C renal was > 100 µM each time. Besides, the TGI in the assay on SNB-19 CNS and in the assay with U251 CNS was > 100 µM in each case.
On to `N.N.N.N.N.O=C([O-])c1nn[n-]n1.[Cl-].[Co+3]`, for which the GI50 with HT29 colon, with IGROV1 ovarian, in the assay with RXF 393 renal, in the assay with SK-MEL-2 melanoma, with SK-MEL-5 melanoma and in the assay with SN12C renal was > 100 µM each time. The GI50 with SNB-19 CNS and in the assay on U251 CNS was > 100 µM throughout. Further, the TGI with HT29 colon, in the assay with IGROV1 ovarian, in the assay on RXF 393 renal, with SK-MEL-2 melanoma, in the assay with SK-MEL-5 melanoma and with SN12C renal was > 100 µM throughout. For the same compound, the TGI with SNB-19 CNS and with U251 CNS was > 100 µM in each case.
As to `CC1=C(C)CC2(CCCCC2=O)S(=O)C1` (stereo not drawn), the TGI in the assay with A498 renal, in the assay with HT29 colon, with IGROV1 ovarian, in the assay on RXF 393 renal, in the assay with SK-MEL-2 melanoma and in the assay on SK-MEL-5 melanoma was > 100 µM each time. Also, the TGI with SN12C renal, with SNB-19 CNS and with U251 CNS was > 100 µM throughout.
For `Cc1ccc2nc3c(C(=O)NCCN(C)C)cccc3nc2c1`, the TGI was 8.7 µM with A498 renal; 15.4 µM with HT29 colon; > 60.1 µM with IGROV1 ovarian; 15.5 µM in the assay with RXF 393 renal; 12.9 µM with SK-MEL-2 melanoma; > 39.8 µM in the assay with SK-MEL-5 melanoma. Besides, the TGI in the assay with SN12C renal is 27.9 µM; in the assay on SNB-19 CNS, 46.3 µM; with U251 CNS it was 24.3 µM.
As for `Cc1ccc(N(C(=O)CC(=O)NN)C(=O)c2ccccc2Cl)cc1`, the TGI in the assay on A498 renal, in the assay with HT29 colon, in the assay with IGROV1 ovarian, with RXF 393 renal, in the assay with SN12C renal and in the assay with SNB-19 CNS was > 100 µM throughout. Moreover, the TGI with U251 CNS is > 100 µM.
`Cc1ccc(S(=O)(=O)n2c(-c3ccccc3)c(-c3ccccc3)c3ccccc32)cc1`: the TGI in the assay on HT29 colon, in the assay with IGROV1 ovarian, with RXF 393 renal, in the assay on SK-MEL-2 melanoma, in the assay with SK-MEL-5 melanoma and in the assay on SN12C renal was > 100 µM throughout. Further, the TGI in the assay on SNB-19 CNS and with U251 CNS was > 100 µM in each case.
Take `CC1=C2C(=O)O[C@@H](c3ccoc3)[C@]2(C)CCC1`: the TGI in the assay with HT29 colon, in the assay on IGROV1 ovarian, with SK-MEL-2 melanoma, with SK-MEL-5 melanoma, with SNB-19 CNS and in the assay on U251 CNS was > 100 µM each time.
